# Where two headings read alike, the source gives them in different places.
# Tests used:
# [1] = tested on: human SKM-1 acute myeloid leukemia cells; test: SKM-1 antiproliferation cell-based assay (ATPlite)
# Summary of the method: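 Log-phase cells in RPMI 1640/15% FBS were seeded at 34722 cells/mL and exposed for 4 days to nine-concentration DMSO serial dilutions in triplicate. Viability was read as ATP luminescence (ATPlite 1step), and IC50 values came from variable-slope non-linear regression.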
# [2] = target: T1, human BRD4 bromodomain II (Homo sapiens, UniProt O60885); test: Bromodomain binding assay (AlphaScreen), BRD4 BDII
# T1 construct: human BRD4 bromodomain II [based on Genbank NM_058243, residues 349-460]; host or cells: E. coli
# Summary of the method: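 AlphaScreen competition: His6-BRD4 BDI (aa 44-170) or BDII (aa 349-460) vs biotin-H4(1-21) K5/K8/K12/K16Ac peptide; Ni-chelate acceptor/streptavidin donor beads. HEPES pH 7.5, NaCl, CHAPS, BSA, 1% DMSO; RT. 10-pt 3-fold titration, % peptide binding fitted → IC50.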
# [3] = Homo sapiens, SKM-1, SKM-1 antiproliferation assay
# [4] = BRD4 BDII AlphaScreen assay, read-out: BRD4 BD2 IC50
# [5] = Homo sapiens, SKM-1, 96 h, SKM-1 antiproliferation assay, 4 days, Table C2
# [6] = AlphaScreen assay, Table C2, read-out: BRD4 BDII IC50
"GI50 [1, 3]","IC50 [2, 4]","GI50 [1, 5]","IC50 [2, 6]",GI50 ([1]; SKM-1 antiproliferation assay),Compound
30 to 300 nM,1 to 10 nM,,,,Cc1ncc(-c2cc(F)cc(-c3ccc(-n4ccn(C)c4=O)c(Cl)c3)c2O)cc1N1CC(F)(F)[C@](C)(O)C1 [Example 898]
,,30 to 300 nM,0.01 to 1 nM,,"CNC1(c2cccc(-c3cc(F)cc(-c4ccc(-n5ccn(C)c5=O)c(Cl)c4)c3O)c2)CC1 [Example 799, 1-(3-chloro-5′-fluoro-2′-hydroxy-3″-(1-(methylamino)cyclopropyl)-[1,1′:3′,1″-terphenyl]-4-yl)-3-methyl-1H-imidazol-2(3H)-one]"
0.3 to 30 nM,1 to 10 nM,,,,Cc1ncc(-c2cc(F)cc(-c3ccc(-n4ccn(C)c4=O)c(Cl)c3)c2O)cc1N1CCC2(CCN2C(C)C)C1 (stereo not shown) [Example 891]
,,30 to 300 nM,1 to 10 nM,,"COCc1ncc(-c2cc(F)cc(-c3ccc(N4CCN(C)C4=O)c(Cl)c3)c2O)cc1N1CCNCC1 [Example 399, 1-(3-chloro-5′-fluoro-2′-hydroxy-3′-(6-(methoxymethyl)-5-(piperazin-1-yl)pyridin-3-yl)-[1,1′-biphenyl]-4-yl)-3-methylimidazolidin-2-one]"
0.3 to 30 nM,0.01 to 1 nM,,,,"CC(C)N1[C@H](C)CN(c2cccc(-c3cc(F)cc(-c4ccc(-n5ccn(C)c5=O)c(Cl)c4)c3O)c2)C[C@@H]1C [Example 906, 1-(3-chloro-5′-fluoro-2′-hydroxy-3″-((3R,5S)-4-isopropyl-3,5-dimethylpiperazin-1-yl)-[1,1′:3′,1″-terphenyl]-4-yl)-3-methyl-1H-imidazol-2(3H)-one]"
0.3 to 30 nM,0.01 to 1 nM,,,,"COc1ncc(-c2cc(F)cc(-c3ccc(-n4ccn(C)c4=O)c(Cl)c3)c2O)cc1N1CCC2(CCCN2C(C)C)C1 (stereo not shown) [Example 913, 1-(3-chloro-5′-fluoro-2′-hydroxy-3′-(5-(1-isopropyl-1,7-diazaspiro[4.4]nonan-7-yl)-6-methoxypyridin-3-yl)-[1,1′-biphenyl]-4-yl)-3-methyl-1H-imidazol-2(3H)-one]"
,,30 to 300 nM,1 to 10 nM,,"CC(=O)NCCNc1ncc(-c2cc(F)cc(-c3ccc(N4CCN(C)C4=O)c(Cl)c3)c2O)cc1N1CCNCC1 [Example 395, N-(2-((5-(3′-chloro-5-fluoro-2-hydroxy-4′-(3-methyl-2-oxoimidazolidin-1-yl)-[1,1′-biphenyl]-3-yl)-3-(piperazin-1-yl)pyridin-2-yl)amino)ethyl)acetamide]"
,,30 to 300 nM,1 to 10 nM,,"Cn1ccn(-c2ccc(-c3cc(F)cc(-c4ccnc(N5CCNC(CCN)C5)c4)c3O)cc2Cl)c1=O (stereo not shown) [Example 697, 1-(3′-(2-(3-(2-aminoethyl)piperazin-1-yl)pyridin-4-yl)-3-chloro-5′-fluoro-2′-hydroxy-[1,1′-biphenyl]-4-yl)-3-methyl-1H-imidazol-2(3H)-one]"
,,0.3 to 30 nM,0.01 to 1 nM,,"CC(C)N1CCC12CCN(c1cc(-c3cc(F)cc(-c4ccc(-n5ccn(C)c5=O)c(Cl)c4)c3O)ccn1)C2 (stereo not shown) [Example 748, 1-(3-chloro-5′-fluoro-2′-hydroxy-3′-(2-(1-isopropyl-1,6-diazaspiro[3.4]octan-6-yl)pyridin-4-yl)-[1,1′-biphenyl]-4-yl)-3-methyl-1H-imidazol-2(3H)-one]"

# The next lines start with the molecule.
Compound,"GI50 [1, 3]","IC50 [2, 4]","GI50 [1, 5]","IC50 [2, 6]",GI50 ([1]; SKM-1 antiproliferation assay)
"Cn1ccn(-c2ccc(-c3cc(F)cc(-c4ccnc(N5CCC(C)(NC(=O)OC(C)(C)C)C5)c4)c3O)cc2Cl)c1=O (stereo not shown) [Example 776, tert-butyl (1-(4-(3′-chloro-5-fluoro-2-hydroxy-4′-(3-methyl-2-oxo-2,3-dihydro-1H-imidazol-1-yl)-[1,1′-biphenyl]-3-yl)pyridin-2-yl)-3-methylpyrrolidin-3-yl)carbamate]",,,30 to 300 nM,10 to 100 nM,
"Cn1ccn(-c2ccc(-c3cc(F)cc(-c4ccc(=O)n(C5CCNCC5)c4)c3O)cc2Cl)c1=O [Example 486, 5-(3′-chloro-5-fluoro-2-hydroxy-4′-(3-methyl-2-oxo-2,3-dihydro-1H-imidazol-1-yl)-[1,1′-biphenyl]-3-yl)-1-(piperidin-4-yl)pyridin-2(1H)-one]",,,30 to 300 nM,1 to 10 nM,
"CN1CCN(c2ccc(-c3cc(C(F)(F)F)cc(-c4ccnc(N5CCNCC5)c4)c3O)cc2Cl)C1=O [Example 332, 1-(3-chloro-2′-hydroxy-3′-(2-(piperazin-1-yl)pyridin-4-yl)-5′-(trifluoromethyl)-[1,1′-biphenyl]-4-yl)-3-methylimidazolidin-2-one]",,,≥ 3000 nM,10 to 100 nM,
"CC(C)c1cc(-c2cc(F)cc(-c3cccc(N4CCN(C(C)(C)C)CC4)c3)c2O)cc(Cl)c1-n1ccn(C)c1=O [Example 935, (S)-1-(3″-(4-(tert-butyl)piperazin-1-yl)-3-chloro-5′-fluoro-2′-hydroxy-5-isopropyl-[1,1′:3′,1″-terphenyl]-4-yl)-3-methyl-1,3-dihydro-2H-imidazol-2-one]",,> 100 nM,,,300 to 3000 nM
Cn1ccn(-c2ccc(-c3cc(F)cc(-c4cccc(-c5cccc(CO)c5)c4)c3O)cc2Cl)c1=O [Example 865],300 to 3000 nM,10 to 100 nM,,,
"Cn1ccn(-c2ccc(-c3cc(F)cc(-c4ccnc(N5CCC(N6CCC(F)CC6)C5)c4)c3O)cc2Cl)c1=O (stereo not shown) [Example 701, 1-(3-chloro-5′-fluoro-3′-(2-(3-(4-fluoropiperidin-1-yl)pyrrolidin-1-yl)pyridin-4-yl)-2′-hydroxy-[1,1′-biphenyl]-4-yl)-3-methyl-1H-imidazol-2(3H)-one]",,,30 to 300 nM,0.01 to 1 nM,
"Cn1ccn(-c2ccc(-c3cc(F)cc(-c4ccnc(N5CCCC(C)(O)C5)c4)c3O)cc2Cl)c1=O (stereo not shown) [Example 714, 1-(3-chloro-5′-fluoro-2′-hydroxy-3′-(2-(3-hydroxy-3-methylpiperidin-1-yl)pyridin-4-yl)-[1,1′-biphenyl]-4-yl)-3-methyl-1H-imidazol-2(3H)-one]",,,30 to 300 nM,0.01 to 1 nM,
"CN1CC2(C1)CN(c1cc(-c3cc(F)cc(-c4ccc(-n5ccn(C)c5=O)c(Cl)c4)c3O)ccn1)C2 [Example 489, 1-(3-chloro-5′-fluoro-2′-hydroxy-3′-(2-(6-methyl-2,6-diazaspiro[3.3]heptan-2-yl)pyridin-4-yl)-[1,1′-biphenyl]-4-yl)-3-methyl-1H-imidazol-2(3H)-one]",,,0.3 to 30 nM,1 to 10 nM,
"CO[C@@H]1COC(=O)N1c1ccc(-c2cc(F)cc(-c3ccnc(N4CCNCC4)c3)c2O)cc1Cl [Example 507, (R)-3-(3-chloro-5′-fluoro-2′-hydroxy-3′-(2-(piperazin-1-yl)pyridin-4-yl)-[1,1′-biphenyl]-4-yl)-4-methoxyoxazolidin-2-one]",,,300 to 3000 nM,10 to 100 nM,
"Cn1ccn(-c2ccc(-c3cc(F)cc(-c4ccnc(N5CCNC6(CC6)C5)c4)c3O)cc2Cl)c1=O [Example 559, 1-(3′-(2-(4,7-diazaspiro[2.5]octan-7-yl)pyridin-4-yl)-3-chloro-5′-fluoro-2′-hydroxy-[1,1′-biphenyl]-4-yl)-3-methyl-1H-imidazol-2(3H)-one]",,,30 to 300 nM,0.01 to 1 nM,
"COCC(C)(C)N1CCN(c2cc(-c3cc(F)cc(-c4ccc(-n5ccn(C)c5=O)c(Cl)c4)c3O)ccn2)CC1 [Example 724, 1-(3-chloro-5′-fluoro-2′-hydroxy-3′-(2-(4-(1-methoxy-2-methylpropan-2-yl)piperazin-1-yl)pyridin-4-yl)-[1,1′-biphenyl]-4-yl)-3-methyl-1H-imidazol-2(3H)-one]",,,0.3 to 30 nM,0.01 to 1 nM,
